In ChEMBL document CHEMBL1201862, “PubChem BioAssay data set” (2004):
Activity calls are given as the source filed them.

How the values were obtained:
Ephrin type-A receptor 4 = Ephrin type-A receptor 4 (Mus musculus, UniProt Q03137); experiment: EphA4 ligand-binding antagonists – biochemical, colorimetric, mouse EphA4, primary screen (AID 689); format: functional
[1] = target: T1, Tyrosine-protein phosphatase non-receptor type 7 (Homo sapiens, UniProt P35236); experiment: HePTP tyrosine phosphatase activity blockers – biochemical, absorbance, leukemia target, primary screen (AID 521); format: functional
T1 sequence (P35236 whole entry): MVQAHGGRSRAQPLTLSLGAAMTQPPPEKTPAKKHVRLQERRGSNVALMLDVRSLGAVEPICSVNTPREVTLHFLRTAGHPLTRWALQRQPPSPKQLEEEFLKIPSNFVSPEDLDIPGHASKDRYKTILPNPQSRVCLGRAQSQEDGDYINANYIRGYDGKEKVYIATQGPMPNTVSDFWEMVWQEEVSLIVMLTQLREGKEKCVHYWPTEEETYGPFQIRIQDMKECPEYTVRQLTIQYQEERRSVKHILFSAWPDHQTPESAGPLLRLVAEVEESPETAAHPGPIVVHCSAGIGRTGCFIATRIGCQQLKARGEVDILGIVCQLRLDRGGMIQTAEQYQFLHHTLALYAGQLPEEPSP

[2] = NIH3T3 cell viability loss – ATP luminescence, mouse fibroblasts, counter-screen, dose response (AID 2010); format: functional, cell-based;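 also: cells exposed to compound for about 90 hours before reading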
[3] = Trypanosoma cruzi growth suppression in host cells – NIH3T3 host cells, beta-gal luminescence, confirmation (AID 2044); format: functional, cell-based;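 also: intracellular parasites grown in NIH/3T3 mouse fibroblasts as host cells; luminescent beta-galactosidase reporter signal from transgenic T. cruzi replicating inside host cells; inhibitors lower the luminescence signal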
[4] = target: Photoreceptor-specific nuclear receptor (Homo sapiens, UniProt Q9Y5X4); experiment: ligands suppressing NR2E3 nuclear receptor activity – biochemical, TR-FRET, dose response (AID 463256); format: functional
[5] = target: Peroxisome proliferator-activated receptor gamma/Nuclear receptor corepressor 2 (Homo sapiens, UniProt P37231+Q9Y618); experiment: Counterscreen for NR2E3 inverse agonists: TR-FRET-based biochemical high throughput dose response assay to identify inverse agonists of the interaction between peroxisome proliferator-activated receptor gamma (PPARg) and nuclear receptor co-repressor 2 (NCOR2).; format: functional
[6] = M. tuberculosis growth inhibition, HTS (AID 449762); format: functional
NADPH oxidase 1 = target: T2, NADPH oxidase 1 (Homo sapiens, UniProt Q9Y5S8); format: functional, cell-based;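 also: Cell-based assay with luminescence read-out, IC50 derived from inhibitor dose-response curves; intracellular ROS from endogenous NOX1 in intact HT29 colon cancer cells; potency of inhibitors that lower the ROS luminescence signal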
T2 sequence (Q9Y5S8 whole entry): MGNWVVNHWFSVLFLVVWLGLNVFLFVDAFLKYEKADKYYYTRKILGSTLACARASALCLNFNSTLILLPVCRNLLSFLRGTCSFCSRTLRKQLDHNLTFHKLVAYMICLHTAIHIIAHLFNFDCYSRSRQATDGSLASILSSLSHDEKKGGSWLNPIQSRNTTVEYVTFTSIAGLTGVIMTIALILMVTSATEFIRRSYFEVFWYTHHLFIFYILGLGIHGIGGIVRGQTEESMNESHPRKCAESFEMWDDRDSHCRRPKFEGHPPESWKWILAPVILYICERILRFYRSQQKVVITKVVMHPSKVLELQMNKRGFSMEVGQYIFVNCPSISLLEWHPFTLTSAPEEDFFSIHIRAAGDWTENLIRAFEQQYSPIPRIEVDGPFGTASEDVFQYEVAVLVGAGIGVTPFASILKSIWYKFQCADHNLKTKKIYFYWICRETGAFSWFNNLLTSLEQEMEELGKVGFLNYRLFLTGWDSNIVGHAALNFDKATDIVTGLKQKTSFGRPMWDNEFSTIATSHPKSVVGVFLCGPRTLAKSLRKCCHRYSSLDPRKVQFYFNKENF

[7] = target: 5-hydroxytryptamine receptor 1A (Homo sapiens, UniProt P08908); format: functional
[8] = target: E3 ubiquitin-protein ligase Mdm2 (Homo sapiens, UniProt Q00987); experiment: MDM2-luc reporter signal enhancers, multi-concentration potency testing, MDM2 ubiquitin-protein ligase inhibitor program, whole-cell format, luminescence detection, 384-well microplate (AID 1394); format: functional;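 also: MDM2 E3 inhibitors raise luminescence so EC50 is for signal enhancement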
Mucolipin-3 = Mucolipin-3 (Homo sapiens, UniProt Q8TDD5); experiment: Dose response cell-based high-throughput screening assay for agonists of the transient receptor potential channel ML3 (TRPML3). [Related pubchem assays: 1526, 1424, 1448 ]; format: functional
Chain of Mucolipin-3 (Q8TDD5 whole entry): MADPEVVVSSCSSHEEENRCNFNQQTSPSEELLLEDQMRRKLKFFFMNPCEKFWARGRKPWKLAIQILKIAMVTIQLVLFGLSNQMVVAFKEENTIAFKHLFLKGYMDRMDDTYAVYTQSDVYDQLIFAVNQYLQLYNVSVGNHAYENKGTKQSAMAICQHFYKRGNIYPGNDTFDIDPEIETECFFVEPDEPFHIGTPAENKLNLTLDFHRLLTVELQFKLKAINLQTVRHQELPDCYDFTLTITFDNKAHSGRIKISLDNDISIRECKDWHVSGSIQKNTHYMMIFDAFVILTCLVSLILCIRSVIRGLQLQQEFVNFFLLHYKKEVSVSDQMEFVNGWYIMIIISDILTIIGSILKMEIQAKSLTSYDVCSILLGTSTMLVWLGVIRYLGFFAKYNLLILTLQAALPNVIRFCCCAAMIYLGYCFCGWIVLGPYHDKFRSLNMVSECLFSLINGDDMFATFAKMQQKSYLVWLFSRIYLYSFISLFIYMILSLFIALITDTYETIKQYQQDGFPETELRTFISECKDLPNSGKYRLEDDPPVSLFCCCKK

[9] = viability loss in human Jurkat cells – cell-based, luminescence, cytotoxicity control for P. falciparum gametocyte viability project, dose response (AID 1117277); format: functional;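 also: potency reflects loss of cellular ATP meaning fewer viable cells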
[10] = viability inhibitors of stage V gametocytes – luminescence, dose response (AID 1117278); format: functional, cell-based;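 also: gametocytes exposed to compound for 24 hours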
Ion channel NompC = Ion channel NompC (Danio rerio, UniProt Q7T1G6); experiment: Fluorescence counterscreen assay for TRPML3 agonists: dose response cell-based high-throughput screening assay to identify agonists of the transient receptor potential channel N1 (TRPN1). [Related pubchem assays: 1526, 1424, 1448 ]; format: functional
Chain of Ion channel NompC (Q7T1G6 whole entry): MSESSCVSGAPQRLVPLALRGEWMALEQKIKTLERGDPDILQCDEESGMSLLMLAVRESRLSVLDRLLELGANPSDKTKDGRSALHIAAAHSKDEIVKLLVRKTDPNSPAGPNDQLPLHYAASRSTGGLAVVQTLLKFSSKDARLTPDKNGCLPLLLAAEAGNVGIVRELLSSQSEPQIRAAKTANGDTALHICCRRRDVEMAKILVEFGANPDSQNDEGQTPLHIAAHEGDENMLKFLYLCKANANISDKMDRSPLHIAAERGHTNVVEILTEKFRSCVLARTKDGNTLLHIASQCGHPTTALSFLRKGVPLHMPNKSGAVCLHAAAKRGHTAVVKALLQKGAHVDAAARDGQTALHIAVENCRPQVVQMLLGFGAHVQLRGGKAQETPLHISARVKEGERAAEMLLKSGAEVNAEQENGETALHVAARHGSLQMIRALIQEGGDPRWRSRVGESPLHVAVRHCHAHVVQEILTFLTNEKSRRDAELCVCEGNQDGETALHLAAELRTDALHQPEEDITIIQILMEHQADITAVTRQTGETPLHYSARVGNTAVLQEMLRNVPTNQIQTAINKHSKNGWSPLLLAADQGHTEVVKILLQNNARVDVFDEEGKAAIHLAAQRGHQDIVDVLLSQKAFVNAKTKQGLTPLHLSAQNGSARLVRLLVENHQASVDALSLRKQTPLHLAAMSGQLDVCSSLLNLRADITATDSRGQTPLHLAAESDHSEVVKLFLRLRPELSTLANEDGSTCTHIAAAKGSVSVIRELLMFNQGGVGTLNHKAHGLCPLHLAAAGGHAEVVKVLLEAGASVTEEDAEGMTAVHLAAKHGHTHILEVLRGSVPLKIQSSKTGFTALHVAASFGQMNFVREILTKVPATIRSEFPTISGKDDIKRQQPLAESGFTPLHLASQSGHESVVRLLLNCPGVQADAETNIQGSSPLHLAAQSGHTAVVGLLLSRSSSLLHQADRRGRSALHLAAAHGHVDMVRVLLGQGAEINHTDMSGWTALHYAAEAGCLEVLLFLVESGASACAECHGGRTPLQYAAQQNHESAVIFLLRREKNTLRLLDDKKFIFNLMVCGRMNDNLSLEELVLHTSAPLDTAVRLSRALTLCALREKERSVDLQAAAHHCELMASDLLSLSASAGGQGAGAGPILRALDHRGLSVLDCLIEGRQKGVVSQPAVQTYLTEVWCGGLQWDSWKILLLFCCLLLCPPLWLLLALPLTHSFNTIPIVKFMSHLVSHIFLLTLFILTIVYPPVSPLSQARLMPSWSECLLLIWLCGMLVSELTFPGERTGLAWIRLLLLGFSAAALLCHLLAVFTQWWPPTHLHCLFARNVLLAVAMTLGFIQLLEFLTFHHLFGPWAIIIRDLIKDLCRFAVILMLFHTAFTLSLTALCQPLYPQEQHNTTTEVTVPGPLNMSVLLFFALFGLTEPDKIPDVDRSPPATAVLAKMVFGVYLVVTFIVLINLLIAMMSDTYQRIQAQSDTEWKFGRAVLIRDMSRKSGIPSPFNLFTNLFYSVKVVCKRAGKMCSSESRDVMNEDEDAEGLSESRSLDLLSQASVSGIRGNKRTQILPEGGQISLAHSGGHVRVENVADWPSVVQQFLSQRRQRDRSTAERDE

Estrogen receptor beta [11] = target: T3, Estrogen receptor beta (Homo sapiens, UniProt Q92731);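 also: recombinant ER-beta bound to coactivator SRC1 peptide in presence of estradiol agonist; inhibitors block coactivator peptide binding and lower the FRET signal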
T3 sequence (Q92731 whole entry): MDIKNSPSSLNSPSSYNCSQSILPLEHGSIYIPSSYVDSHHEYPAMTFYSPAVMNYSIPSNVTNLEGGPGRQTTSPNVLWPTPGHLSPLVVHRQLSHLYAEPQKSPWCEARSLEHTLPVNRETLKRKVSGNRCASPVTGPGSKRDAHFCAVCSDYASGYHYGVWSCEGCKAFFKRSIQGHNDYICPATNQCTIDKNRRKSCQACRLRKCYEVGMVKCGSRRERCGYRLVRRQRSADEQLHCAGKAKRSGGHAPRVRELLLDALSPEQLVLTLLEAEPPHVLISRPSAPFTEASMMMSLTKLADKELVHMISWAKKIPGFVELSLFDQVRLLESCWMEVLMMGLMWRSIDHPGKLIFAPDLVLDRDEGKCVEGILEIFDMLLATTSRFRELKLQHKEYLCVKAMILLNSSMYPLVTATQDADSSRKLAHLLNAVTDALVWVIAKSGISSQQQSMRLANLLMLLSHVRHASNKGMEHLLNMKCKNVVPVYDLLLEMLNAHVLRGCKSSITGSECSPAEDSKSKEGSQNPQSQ

H9c2 = experiment: cells; format: functional, cell-based; conditions: Rattus norvegicus, H9c2, Myocardium;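 also: confirmatory concentration-response retest of ultra-high-throughput screening hits for modulation of myocardial damage; cell death induced by hydrogen peroxide oxidative stress; compound pretreatment for 60 min then peroxide exposure for 2 h; potency is for protecting the cells against peroxide damage rather than for killing them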
Estrogen receptor beta [12] = target: T3, Estrogen receptor beta; experiment: blockers of SRC-3 recruitment to ERβ – biochemical, ELISA, streptavidin-HRP readout, orthogonal assay, confirmation (AID 1060)
[13] = target: Neuropeptides B/W receptor type 1 (Homo sapiens, UniProt P48145); experiment: Fluorescence-based dose response cell-based high throughput screening assay to identify antagonists of the G-protein coupled receptor 7 (GPR7). [Related pubchem assays: 1952 (Screening assay (GPR7 antagonists).), 1880 (Summary AID.)]; format: functional
Chain of Neuropeptides B/W receptor type 1 (P48145 whole entry): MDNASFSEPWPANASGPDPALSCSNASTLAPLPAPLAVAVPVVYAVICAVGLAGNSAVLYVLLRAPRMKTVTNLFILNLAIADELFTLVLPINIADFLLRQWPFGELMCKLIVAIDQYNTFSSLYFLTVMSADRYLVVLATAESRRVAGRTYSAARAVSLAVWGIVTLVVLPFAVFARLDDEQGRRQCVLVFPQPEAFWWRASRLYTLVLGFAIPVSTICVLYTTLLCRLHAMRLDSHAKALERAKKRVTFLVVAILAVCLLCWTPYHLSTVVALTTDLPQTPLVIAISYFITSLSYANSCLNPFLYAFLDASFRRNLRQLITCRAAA

[14] = target: T4, Heat shock factor protein 1 (Mus musculus, UniProt P38532); experiment: decrease of HSF1-responsive luciferase luminescence – cell-based, NIH3T3, dose retest, confirmation (AID 2382); format: functional;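 also: NIH3T3 fibroblasts with HSF1-driven luciferase reporter stressed by proteasome inhibitor MG132; luminescence from HSF1-driven luciferase expression after 8 hours of MG132 stress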
T4 sequence (P38532 whole entry): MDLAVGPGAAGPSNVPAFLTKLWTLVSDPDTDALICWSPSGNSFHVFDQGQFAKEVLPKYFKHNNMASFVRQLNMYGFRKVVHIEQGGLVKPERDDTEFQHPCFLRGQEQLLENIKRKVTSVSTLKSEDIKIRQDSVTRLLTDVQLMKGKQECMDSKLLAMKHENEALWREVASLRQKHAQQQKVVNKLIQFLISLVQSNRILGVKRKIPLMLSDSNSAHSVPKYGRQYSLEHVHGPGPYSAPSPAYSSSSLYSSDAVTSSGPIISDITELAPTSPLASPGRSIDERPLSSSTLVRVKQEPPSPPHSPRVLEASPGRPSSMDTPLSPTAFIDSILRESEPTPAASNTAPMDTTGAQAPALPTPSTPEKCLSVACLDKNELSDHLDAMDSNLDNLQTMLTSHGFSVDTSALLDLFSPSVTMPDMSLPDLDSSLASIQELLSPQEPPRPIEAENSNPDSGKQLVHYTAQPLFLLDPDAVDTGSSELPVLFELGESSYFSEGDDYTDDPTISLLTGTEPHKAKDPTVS

[15] = target: Melanin-concentrating hormone receptor 1 (Homo sapiens, UniProt Q99705); experiment: Fluorescence-based counterscreen for antagonists of the G-protein coupled receptor 7 (GPR7): cell-based high throughput dose response assay to identify antagonists of the melanin-concentrating hormone receptor 1 (MCHR1).; format: functional
Chain of Melanin-concentrating hormone receptor 1 (Q99705 whole entry): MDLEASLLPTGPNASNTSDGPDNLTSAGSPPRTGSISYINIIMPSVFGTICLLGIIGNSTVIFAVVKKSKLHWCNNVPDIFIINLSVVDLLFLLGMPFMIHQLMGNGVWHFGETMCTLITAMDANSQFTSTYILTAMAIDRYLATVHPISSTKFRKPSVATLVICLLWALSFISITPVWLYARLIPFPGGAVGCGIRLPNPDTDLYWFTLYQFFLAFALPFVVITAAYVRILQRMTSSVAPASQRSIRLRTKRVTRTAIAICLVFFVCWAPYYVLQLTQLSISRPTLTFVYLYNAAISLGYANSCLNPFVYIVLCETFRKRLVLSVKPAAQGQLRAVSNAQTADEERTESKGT

BJ [16] = experiment: BJ-TERT-LT-ST fibroblast viability loss – cell-based, RAS-independent, luminescence, dose response (AID 1935); format: functional; conditions: Homo sapiens;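 also: BJ fibroblasts immortalized with TERT plus LT and ST oncogenes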
[17] = Luminescence-based dose response cell-based high throughput screening assay for cytotoxic compounds using the IEC-6 intestinal epithelial cell line. [Related pubchem assays: 1858 (Summary AID.), 1825 (Counterscreen.), 1907 (Confirmation screen.)]; format: functional
BJ [18] = experiment: cells; format: functional, cell-based; conditions: Homo sapiens
BJ [19] = experiment: growth inhibition of engineered Ras-driven BJ cells – cell-based, alamar blue fluorescence, cherrypicked samples, dose response (AID 2631); format: functional; conditions: Homo sapiens;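 also: confirmatory dose-response assay in RAS-dependent BJ fibroblasts engineered with TERT, LT and ST, with cytotoxicity read by fluorescence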
[20] = DRD fibroblast viability loss – cell-based, non-viral oncogenic, luminescence, dose response (AID 1934); format: functional; conditions: Homo sapiens
BJ [21] = experiment: BJ-TERT fibroblast viability loss – cell-based, RAS-independent, luminescence, dose response (AID 1933); format: functional; conditions: Homo sapiens
[22] = target: Voltage-gated inwardly rectifying potassium channel KCNH2 (Homo sapiens, UniProt Q12809); experiment: concentration-dependent hERG rescue from blockers – cell-based, thallium flux, dose response (AID 2121); format: ADME
Chain of Voltage-gated inwardly rectifying potassium channel KCNH2 (Q12809 whole entry): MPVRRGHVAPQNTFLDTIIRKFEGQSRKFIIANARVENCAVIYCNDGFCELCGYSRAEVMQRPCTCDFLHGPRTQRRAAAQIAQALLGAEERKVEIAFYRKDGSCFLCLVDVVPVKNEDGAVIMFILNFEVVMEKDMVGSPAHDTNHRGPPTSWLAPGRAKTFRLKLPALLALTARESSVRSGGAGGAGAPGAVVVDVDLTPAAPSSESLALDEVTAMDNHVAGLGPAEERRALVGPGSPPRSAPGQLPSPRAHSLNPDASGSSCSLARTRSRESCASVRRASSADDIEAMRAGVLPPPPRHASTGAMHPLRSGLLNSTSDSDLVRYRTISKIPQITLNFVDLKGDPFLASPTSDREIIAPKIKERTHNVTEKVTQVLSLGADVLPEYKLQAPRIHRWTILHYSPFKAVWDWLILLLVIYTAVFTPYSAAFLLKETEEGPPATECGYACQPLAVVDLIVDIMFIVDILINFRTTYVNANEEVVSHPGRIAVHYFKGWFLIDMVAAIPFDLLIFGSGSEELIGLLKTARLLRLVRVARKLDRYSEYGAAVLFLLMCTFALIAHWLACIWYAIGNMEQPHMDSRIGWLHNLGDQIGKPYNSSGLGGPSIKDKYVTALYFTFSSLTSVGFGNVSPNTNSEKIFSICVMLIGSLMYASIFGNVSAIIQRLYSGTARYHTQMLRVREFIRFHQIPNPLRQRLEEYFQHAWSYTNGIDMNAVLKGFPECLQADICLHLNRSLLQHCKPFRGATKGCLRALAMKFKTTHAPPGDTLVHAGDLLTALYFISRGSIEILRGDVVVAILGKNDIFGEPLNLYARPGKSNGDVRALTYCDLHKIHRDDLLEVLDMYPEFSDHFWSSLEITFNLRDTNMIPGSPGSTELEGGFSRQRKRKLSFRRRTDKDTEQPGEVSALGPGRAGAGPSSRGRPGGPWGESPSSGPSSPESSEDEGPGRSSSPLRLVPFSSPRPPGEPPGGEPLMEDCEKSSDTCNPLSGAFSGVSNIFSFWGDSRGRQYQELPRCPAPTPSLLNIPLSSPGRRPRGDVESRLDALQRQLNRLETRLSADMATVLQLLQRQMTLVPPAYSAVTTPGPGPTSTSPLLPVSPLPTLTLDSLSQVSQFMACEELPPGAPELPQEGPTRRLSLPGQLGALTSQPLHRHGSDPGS

Streptococcus = experiment: GAS UMAA2166 growth inhibition – luminescence, BacTiterGlo, counter-screen for streptokinase expression inhibitor project, dose response (AID 1915); format: functional, organism-based;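 also: potency for reduction of bacterial viability or growth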
Streptokinase A = target: T5, Streptokinase A (Streptococcus pyogenes serotype M1, UniProt P10520); experiment: viability-normalized secreted streptokinase activity reduction – plasminogen activation absorbance, OD405, dose response (AID 1914); format: functional, Streptococcus pyogenes M1 GAS;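 also: secreted streptokinase activity via plasminogen activation per viability signal from cell pellet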
T5 sequence (P10520 whole entry): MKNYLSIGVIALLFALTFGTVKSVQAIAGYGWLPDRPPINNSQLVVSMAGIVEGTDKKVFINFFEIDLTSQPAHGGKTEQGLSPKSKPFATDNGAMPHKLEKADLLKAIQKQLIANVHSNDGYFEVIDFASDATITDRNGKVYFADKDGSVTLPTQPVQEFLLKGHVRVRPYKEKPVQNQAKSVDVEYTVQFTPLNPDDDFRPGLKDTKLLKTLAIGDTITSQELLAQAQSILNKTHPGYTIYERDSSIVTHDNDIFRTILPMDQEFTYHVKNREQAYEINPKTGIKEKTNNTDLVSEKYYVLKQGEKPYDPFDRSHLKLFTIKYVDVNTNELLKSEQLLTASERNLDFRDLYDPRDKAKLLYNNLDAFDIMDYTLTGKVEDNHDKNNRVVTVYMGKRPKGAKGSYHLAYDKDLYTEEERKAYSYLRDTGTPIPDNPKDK

[23] = tested on: Streptococcus sp. 'group A'; experiment: Streptococcus pyogenes SK(-)GAS viability under kanamycin – luminescence, BacTiterGlo, confirmation, counter-screen for streptokinase expression inhibitor project, dose response (AID 1900); format: functional, organism-based
[24] = target: T6, E3 ubiquitin-protein ligase XIAP (Homo sapiens, UniProt P98170); experiment: Counter Screen using XIAP-Bir3 for Chemical Antagonists of Bir1/2 domains of IAP-family anti-apoptotic proteins. [Related pubchem assays (depositor defined):AID1018, AID1449, AID1514, AID1638, AID1749, AID1750, AID488957, AID488963]
T6 sequence (P98170 whole entry): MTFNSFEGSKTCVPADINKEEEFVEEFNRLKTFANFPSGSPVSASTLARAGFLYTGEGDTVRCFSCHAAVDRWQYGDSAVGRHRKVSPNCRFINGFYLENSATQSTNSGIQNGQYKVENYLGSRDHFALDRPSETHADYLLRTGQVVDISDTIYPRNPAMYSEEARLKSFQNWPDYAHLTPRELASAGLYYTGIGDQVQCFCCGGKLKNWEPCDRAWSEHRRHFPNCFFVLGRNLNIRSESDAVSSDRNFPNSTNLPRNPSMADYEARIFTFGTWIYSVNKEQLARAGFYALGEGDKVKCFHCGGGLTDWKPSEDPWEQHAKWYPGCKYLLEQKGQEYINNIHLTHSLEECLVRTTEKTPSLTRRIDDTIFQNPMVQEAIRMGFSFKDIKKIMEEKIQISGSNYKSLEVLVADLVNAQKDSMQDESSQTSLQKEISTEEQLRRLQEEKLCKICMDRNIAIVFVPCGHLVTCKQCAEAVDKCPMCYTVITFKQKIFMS

[25] = Luminescent dose response cell-based high throughput screening assay for inhibitors of the Janus kinase 2 mutant JAK2V617F. [Related pubchem assays: 1446 (Primary screen.), 1521 (Confirmation assay.), 1486 (Counter screen.)]; format: functional
Large T antigen = Large T antigen (Simian virus 40, UniProt P03070); format: functional, Betapolyomavirus macacae;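 also: Confirmatory-stage PubChem screen for compounds that inhibit SV40 T antigen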
[26] = target: T6, E3 ubiquitin-protein ligase XIAP; experiment: small molecules displacing peptide from XIAP – biochemical, IAP family, fluorescence polarization (AID 1018); format: functional
[27] = glucagon-like peptide-1 release potency in STC-1, concentration-response, half-maximal inhibitory concentration in the STC-1 line (AID 1117345); format: functional, cell-based
[28] = Potency on glucagon-like peptide 1 release, dose-response in NCI-H716 cell line, half maximal inhibitory concentration (AID 1117344); format: functional, cell-based
[29] = IC50 of insulin release inhibition, rat insulinoma INS-1E line, 5 mM glucose, cell-based (AID 1117331); format: functional
cells = format: functional, cell-based; conditions: INS-1E

CCCCOP(=O)(OCCCC)/C(C#N)=C(/C)O
IC50 (Ephrin type-A receptor 4): > 100 µM (not active)

O=C(Nc1ccc2c(c1)OCO2)NC1CCN(Cc2ccccc2)CC1
IC50 [1]: > 100 µM (not active)
EC50 [2]: > 60 µM (not active)
EC50 [3]: 1 µM (active)

COc1ccc(N2CCN(CC(=O)Nc3ccccc3C(=O)NCc3ccccc3)CC2)cc1
IC50 [4]: 3.67 µM (active)
IC50 [5]: 3.53 µM (active)

CCCSC1=C(C#N)C(c2ccc(Cl)cc2Cl)CC(=O)N1 (stereo not given)
IC50 [6]: > 25 µM (active)

O=C(O)c1nc(Cl)c(Cl)c(N/N=C/c2ccccc2)c1Cl
IC50 (NADPH oxidase 1): > 17 µM (not active)

CN(C)CCCn1c(NC(=O)C2CCCCC2)nc2ccccc21
EC50 [7]: > 50 µM (not active)

CC(=O)NC1C(=O)N=C(SCC(=O)NC(C)c2ccccc2)NC1=O (stereo not given)
EC50 [8]: 1.67 µM (not active)

CCN(C(=O)c1cnc(OC)cc1C(F)(F)F)c1ccc(Cl)cc1Cl
EC50 (Mucolipin-3): 4.59 µM (active)
IC50 [9]: > 83.3 µM (inactive)
IC50 [10]: > 109 µM (inactive)
EC50 (Ion channel NompC): 8.86 µM (active)

COc1ccccc1N1CCN(C(=O)c2ccc3nc(-c4ccco4)c(-c4ccco4)nc3c2)CC1
IC50 (Estrogen receptor beta [11]): 5.96 µM (active)
IC50 (H9c2): 11.7 µM (active)
IC50 (Estrogen receptor beta [12]): 9.53 µM (not active)

CCCC(CCC)C(=O)Nc1ccc2c(c1)N(C(=O)CCN1CCN(C)CC1)c1ccccc1CC2
IC50 [13]: 7.8 µM (active)
EC50 [14]: > 195 µM (not active)
IC50 [15]: 15.7 µM (not active)

CC(C)(C)c1ccc(C(=O)Nc2ccc(C(=O)NCc3cccnc3)cc2)cc1
EC50 (BJ [16]): 0.88 µM (inconclusive)
IC50 [17]: 0.177 µM (active)
EC50 (BJ [18]): 0.515 µM (active)
EC50 (BJ [19]): 0.549 µM (active)
EC50 [20]: > 150 µM (not active)
EC50 (BJ [21]): 25.5 µM (active)

COc1ccc(N2CCN(C(=S)NC(=O)c3cccs3)CC2)c([N+](=O)[O-])c1
EC50 [22]: 12.2 µM (active)
EC50 (Streptococcus): 24.5 µM (active)
EC50 (Streptokinase A): > 150 µM (not active)
EC50 [23]: 9.37 µM (active)

COC(=O)/C=C/c1ccc(OC(=O)OC)c(OC(=O)OC)c1
IC50 [24]: > 100 µM (inactive)
IC50 (H9c2): > 79 µM (inactive)
IC50 [25]: 2.64 µM (active)
IC50 (Large T antigen): 12.1 µM (active)
IC50 [26]: > 100 µM (not active)

CC(C)(C)CC(C)(C)c1ccc(O)c(Cc2ccc(Cl)cc2Cl)c1 [CLOFOCTOL]
IC50 [27]: 0.544 µM (active)
IC50 [28]: 9.07 µM (inactive)
IC50 [29]: > 33.3 µM (inactive)

Oc1ccccc1 [PHENOL]
IC50 (cells): > 33.3 µM (inactive)
IC50 [29]: > 33.3 µM (inactive)
